Columns and labels:
[1] = target: T1, Human Fibrinogen/Bovine Thrombin (Homo sapiens, UniProt P02671+P02675+P02679); assay: Clotting assay (fibrinogen plus thrombin, time to gel-like clot); format: biochemical; settings: for Human Fibrinogen/Bovine Thrombin Clotting Time: 1 mg/ml fibrinogen, 1 unit/ml thrombin
T1 construct: purchased Chromogenix (Sweden)
T1 sequence (P02671 20-629 limits assumed): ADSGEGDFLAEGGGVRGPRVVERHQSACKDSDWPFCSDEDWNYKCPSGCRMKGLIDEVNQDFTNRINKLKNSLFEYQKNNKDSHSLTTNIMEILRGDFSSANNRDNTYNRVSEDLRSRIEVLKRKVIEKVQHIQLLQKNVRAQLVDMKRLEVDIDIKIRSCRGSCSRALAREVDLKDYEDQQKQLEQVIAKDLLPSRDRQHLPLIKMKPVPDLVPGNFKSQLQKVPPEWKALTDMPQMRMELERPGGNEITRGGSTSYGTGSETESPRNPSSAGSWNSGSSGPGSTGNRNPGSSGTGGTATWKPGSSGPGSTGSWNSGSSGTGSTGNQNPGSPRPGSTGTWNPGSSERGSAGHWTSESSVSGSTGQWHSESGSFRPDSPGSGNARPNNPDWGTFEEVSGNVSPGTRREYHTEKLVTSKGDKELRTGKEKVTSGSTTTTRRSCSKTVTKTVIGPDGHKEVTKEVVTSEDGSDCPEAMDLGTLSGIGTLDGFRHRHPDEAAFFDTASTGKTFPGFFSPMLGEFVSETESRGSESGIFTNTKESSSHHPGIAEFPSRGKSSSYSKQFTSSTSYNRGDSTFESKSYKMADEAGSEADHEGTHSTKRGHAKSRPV
T1 sequence (P02675 31-491): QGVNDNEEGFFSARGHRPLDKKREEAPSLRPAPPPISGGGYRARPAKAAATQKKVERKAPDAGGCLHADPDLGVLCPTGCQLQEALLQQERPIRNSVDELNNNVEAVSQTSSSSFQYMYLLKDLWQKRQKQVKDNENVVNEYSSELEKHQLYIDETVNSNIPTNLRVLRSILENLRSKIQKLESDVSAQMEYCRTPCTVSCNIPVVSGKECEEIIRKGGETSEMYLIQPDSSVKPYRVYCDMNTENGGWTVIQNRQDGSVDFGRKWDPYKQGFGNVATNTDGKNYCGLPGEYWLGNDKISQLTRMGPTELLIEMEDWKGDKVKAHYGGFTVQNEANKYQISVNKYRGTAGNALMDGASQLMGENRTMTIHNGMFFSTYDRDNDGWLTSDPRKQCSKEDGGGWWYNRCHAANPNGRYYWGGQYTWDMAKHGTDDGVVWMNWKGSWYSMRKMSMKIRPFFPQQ
T1 sequence (P02679 27-433 limits assumed): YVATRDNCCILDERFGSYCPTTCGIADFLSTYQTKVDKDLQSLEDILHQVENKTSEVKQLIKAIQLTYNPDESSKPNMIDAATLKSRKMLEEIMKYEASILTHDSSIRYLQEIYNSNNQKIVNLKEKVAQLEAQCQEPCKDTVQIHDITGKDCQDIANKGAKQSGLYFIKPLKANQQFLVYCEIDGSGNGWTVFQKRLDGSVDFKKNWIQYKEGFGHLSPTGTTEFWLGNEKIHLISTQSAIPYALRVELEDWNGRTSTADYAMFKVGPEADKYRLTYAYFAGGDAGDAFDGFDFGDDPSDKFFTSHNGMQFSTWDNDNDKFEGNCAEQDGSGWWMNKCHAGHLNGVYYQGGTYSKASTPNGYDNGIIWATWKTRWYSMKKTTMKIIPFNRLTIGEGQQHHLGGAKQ
Experimental: These tests were conducted by incubating 1 mg of human fibrinogen with desired peptides in 20 mM Tris-HCl, 150 mM NaCl, pH 7.5 in the presence or absence of Zn^2+ for at least 30 min followed by adding 1 unit of bovine thrombin. The total volume of each reaction was 1 ml and the reaction was observed by counting the time for allowing the solution to form a gel like clot in the test tube.
A four amino acid long peptide, G-P-R-P, binds to the γ chain of fibrinogen D fragment and prolongs the clotting time in a closed system containing fibrinogen and thrombin (Laudano, 1978; Laudano, 1980).

fibrinogen D fragment = target: T2, fibrinogen D fragment (Homo sapiens, UniProt P02671+P02675+P02679, DEL434-453); settings: Laudano, 1978; read-out: reported binding affinity KD to fibrinogen D fragment; cited from earlier work
T2 construct: G-P-R-P peptide to fibrinogen D fragment
T2 sequence (P02671 130-216 limits assumed): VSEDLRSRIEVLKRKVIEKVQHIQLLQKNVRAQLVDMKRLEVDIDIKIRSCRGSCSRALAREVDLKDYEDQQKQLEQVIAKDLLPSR
T2 sequence (P02675 164-491 limits assumed): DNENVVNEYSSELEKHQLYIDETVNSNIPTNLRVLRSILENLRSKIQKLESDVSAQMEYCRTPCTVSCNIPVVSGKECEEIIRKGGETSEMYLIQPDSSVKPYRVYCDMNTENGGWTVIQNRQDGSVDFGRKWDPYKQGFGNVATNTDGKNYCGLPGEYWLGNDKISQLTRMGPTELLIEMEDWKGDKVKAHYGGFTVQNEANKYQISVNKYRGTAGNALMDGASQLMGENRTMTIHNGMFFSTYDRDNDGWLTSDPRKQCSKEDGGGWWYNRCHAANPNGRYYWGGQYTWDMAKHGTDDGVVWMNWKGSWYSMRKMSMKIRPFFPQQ
T2 sequence (P02679 112-433 limits assumed): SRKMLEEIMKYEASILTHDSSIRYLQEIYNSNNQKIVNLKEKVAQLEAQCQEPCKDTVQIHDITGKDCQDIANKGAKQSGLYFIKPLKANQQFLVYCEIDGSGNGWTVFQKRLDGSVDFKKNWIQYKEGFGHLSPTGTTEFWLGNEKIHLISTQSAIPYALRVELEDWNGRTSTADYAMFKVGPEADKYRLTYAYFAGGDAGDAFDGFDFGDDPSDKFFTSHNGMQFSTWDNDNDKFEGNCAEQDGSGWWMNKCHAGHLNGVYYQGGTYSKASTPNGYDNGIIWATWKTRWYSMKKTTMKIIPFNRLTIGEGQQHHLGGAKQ

fibrinogen D fragments = target: T3, fibrinogen D fragments (Homo sapiens, UniProt P02671+P02675+P02679, DEL434-453); assay: Inhibition binding assay: competition with MBP-MD4 for binding to fibrinogen D fragments
T3 construct: Fibrinogen D and E fragment were purchased from Calbiochem; purchased Calbiochem (La Jolla, Calif.)
T3 sequence (P02671 130-216 limits assumed): T2 sequence (P02671 130-216 limits assumed)
T3 sequence (P02675 164-491 limits assumed): T2 sequence (P02675 164-491 limits assumed)
T3 sequence (P02679 112-433 limits assumed): T2 sequence (P02679 112-433 limits assumed)
Experimental: FIG. 8. Competitive binding of MD4 peptide in the interaction of MBP-MD4 to fibrinogen D fragments.
The protocol was based on the enzyme-linked immunosorbant binding assay as described above. However, the inhibitors were mixed with biotin labeled protein and allowed to bind to coated molecules in microtiter wells and incubated for 1 h at room temperature.
To measure the binding affinity of MD4 peptide to fibrinogen D fragments, fluorescence polarization experiments were carried out by incubating fluorescein labeled MD4 peptide with increasing concentration of fibrinogen D fragments and observing the change of polarization. The binding affinity of isolated MD4 peptide to fibrinogen D fragments in the presence of 15 uM ZnCl2 was saturable and the apparent dissociation constant, KD, was (8.4±1.6)×10^−8 M (FIG. 7). Competitive binding to D fragment was compared for a four amino acid peptide, G-P-R-P which is known to bind to fibrinogen γ chain (Pratt, 1997) and to prevent fibrinogen from forming fibrin (Laudano, 1978; Laudano, 1980), reduced and alkylated MD4, unlabeled MD4 peptide, and MBP-MD4. […] MD4 peptide binds to fibrinogen α and β chains in Western ligand binding assays whereas G-P-R-P peptide binds to the γ chain of fibrinogen, therefore, both peptides bound to different sites in D fragment.

Row | Molecule | Human Fibrinogen/Bovine Thrombin Clotting Time ([1]; 1 mM EDTA) [min] | Kd (fibrinogen D fragment) [µM] | competition with MBP-MD4 for binding to fibrinogen D fragments (fibrinogen D fragments) | delay of clot formation ([1]; 100 uM peptide, fibrinogen and thrombin, 15 uM ZnCl2) [min] | Human Fibrinogen/Bovine Thrombin Clotting Time ([1]; peptide 0.1 mM, 20 mM Tris, 150 mM NaCl, 15 μM ZnCl2, pH 7.4) [min]
1 | O=C(O)CN(CCN(CC(=O)O)CC(=O)O)CC(=O)O [EDTA] | 12 | – | – | – | –
2 | G-P-R-P | – | 17 | Neither G-P-R-P peptide, nor reduced and alkylated MD4 peptide could inhibit | 10 | 10

Reference: patent US6413931B1, “Peptide inhibitor of fibrinogen blood clotting” (The Texas A&M University System, priority 1999, dated 2002)
